Reference: EP0626016B1, “[…] […]” (BRITISH TECHNOLOGY GROUP LIMITED, priority 1992, dated 1993)

Tests used:
Format in all cases: biochemical, horseradish
[1] = target: T1, HRP (Armoracia rusticana, UniProt P00433); test: Effect of fixed PBBA on light output with varying amounts of HRP (Example 1, part 2); details: for Signal (with PBBA): 40µl of PBBA 0.01mg/ml, after 5 minutes; for Signal: Background ratio: with PBBA
T1 construct: purchased Sigma Chemical Co
T1 sequence (P00433 31-338): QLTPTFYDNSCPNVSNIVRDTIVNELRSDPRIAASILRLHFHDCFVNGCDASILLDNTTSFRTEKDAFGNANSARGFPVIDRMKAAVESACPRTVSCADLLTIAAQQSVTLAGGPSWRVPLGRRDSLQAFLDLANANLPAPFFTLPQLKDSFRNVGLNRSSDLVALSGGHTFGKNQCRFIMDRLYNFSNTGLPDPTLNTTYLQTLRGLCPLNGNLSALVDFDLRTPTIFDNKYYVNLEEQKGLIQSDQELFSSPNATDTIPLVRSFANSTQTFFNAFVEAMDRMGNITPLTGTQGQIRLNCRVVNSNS
Procedure: The above experiment was repeated this time keeping the amount of PBBA enhancer fixed and varying the amount of HRP. The reagents used were 100µl of luminol-hydrogen peroxide, either (a) 40µl of PBBA (0.01mg/ml in 0.lmol/l Tris buffer, pH 8.6) or (b) as a control, 40µl of Tris buffer (0.1mol/l, pH 8.6) and various amounts of HRP (range 5µl to 40µl of 1:50,000 dilution of a lmg/ml stock solution).
The reagents were mixed and light output recorded after 5 minutes on a Berthold Biolumat LB9500C. […] An improved signal:background ratio is shown by comparing results with HRP present with the zero HRP results.

[2] = system: HRP Type VII; test: PBBA enhancement with different peroxidase enzymes (Example 4); details: for Signal Reagent with PBBA: 40µl of PBBA 0.01mg/ml
Procedure: Stock solutions (1mg/ml in 0.1mol/l Tris buffer, pH 8.6) of horseradish peroxidase Type VII, Type VIII and Arthromyces ramosus peroxidase (Sigma) were prepared. […] Luminol-hydrogen peroxide reagent (100µl, 1:10 dilution), either 40µl of PBBA (0.01mg/ml in 0.1mol/l Tris buffer, pH 8.6) or as a control, 40µl of Tris buffer (0.1mol/l, pH 8.6), and 10µl of HRP Type VII (1:50,000 dilution, 2ng) were added to a cuvette. The reagents were mixed and the light emission was recorded after 5 minutes using a Berthold Biolumat LB9500C.

[3] = target: T1, HRP; test: Enhanced chemiluminescent anti-oxidant assay using PBBA (Example 6)
Procedure: The luminol-peroxide reagent (100µl), PBBA (40µl, 1:100 dilution of 1 mg/ml) and HRP (10µl, 1:50,000 dilution of 1mg/ml stock) were mixed together and the light emission measured for 25 minutes. A sample of human serum (2µl, 1:10 dilution in 0.1 mol/l Tris buffer, pH 8.6) was added and the light emission measured for a further 75 minutes.

Compound: OB(O)c1ccc(Br)cc1 [PBBA, para-bromophenylboronic acid]
- Signal (with PBBA) ([1]; HRP 0 pg): 9,125
- Signal (with PBBA) ([1]; HRP 100 pg): 15,861
- Signal: Background ratio ([1]; HRP 100 pg): 1.7
- Signal (with PBBA) ([1]; HRP 200 pg): 22,895
- Signal: Background ratio ([1]; HRP 200 pg): 2.5
- Signal (with PBBA) ([1]; HRP 400 pg): 38,495
- Signal: Background ratio ([1]; HRP 400 pg): 4.2
- Signal (with PBBA) ([1]; HRP 600 pg): 61,491
- Signal: Background ratio ([1]; HRP 600 pg): 6.7
- Signal (with PBBA) ([1]; HRP 800 pg): 105,972
- Signal: Background ratio ([1]; HRP 800 pg): 11.6
- light output of the chemiluminescent reaction ([1]; at all concentrations tested, result in words): increased the light output
- Signal Reagent with PBBA ([2]; Blank (no peroxidase)): 27,820
- Signal Reagent with PBBA ([2]; HRP Type VII 2ng, after 5 minutes): 49,703
- Signal: Background ([2]; HRP Type VII, with PBBA): 1.8
- level of light output ([2]; any of the peroxidases tested (HRP Type VII, Type VIII, Arthromyces ramosus peroxidase), result in words): did not increase the level of light output
- signal to background ratio ([2]; in all cases (HRP Type VII, Type VIII, Arthromyces ramosus peroxidase), result in words): improved in all cases
- Light units ([3]; Time 0 minutes, before serum): 5
- Light units ([3]; Time 10 minutes, before serum): 16
- Light units ([3]; Time 20 minutes, before serum): 68
- Light units ([3]; Time 25 minutes, serum added): 88
- Light units ([3]; Time 26 minutes, after human serum added): 3
- Light units ([3]; Time 30 minutes, after human serum added): 3
- Light units ([3]; Time 50 minutes, after human serum added): 5
- Light units ([3]; Time 60 minutes, after human serum added): 15
- Light units ([3]; Time 70 minutes, after human serum added): 49
- Light units ([3]; Time 80 minutes, after human serum added): 60
- Light units ([3]; Time 90 minutes, after human serum added): 81
- Light units ([3]; Time 100 minutes, after human serum added): 90
- lag after which the light emission returns to its original level ([3]; after addition of human serum (2µl, 1:10 dilution)): 34 min
